Here are results for four compounds from US4412996A, “Pyridoxine derivatives and related pharmaceutical compositions” (Crinos Farmacologica Spa, priority 1980, dated 1983).

Data set [1] in a line: Acute toxicity in the rat (method of Litchfield and Wilcoxon). As to conditions: in vivo, po. The source says:
(§1) In the following resuming table the results obtained for the esters of the Indomethacin are reported. In the determination of the acute toxicity, carried out in the rat, the method of Litchfield and Wilcoxon (J. Pharmacol. Exp. Therm., 96, 99, 1949) has been adopted.

The nature of data set [2]: Anti-inflammatory activity, carrageenin induced oedema (Winter et al.). Type of data set: in vivo, rat. As to conditions: rat, in vivo; carrageenin 3 h; read-out: Therapeutical index LD50/ED50 (carrageenin 3h). An excerpt: (§2) As regards the anti-inflammatory activity, the ED50 in the normal rat has been evaluated according to Winter et al. (Proc. Soc. Exp. Biol. Med., 111, 544, 1962).

Data set [3] concerns rat. Described as above. Type of data set: in vivo. As to conditions: 3 h; for ED50: Rattus norvegicus, po, read-out: Carrageenin induced oedema (3 h) ED50; for Carrageenin induced oedema (3 h) ED50: 180 min.
Source text: as §2
Background: The carrageenan paw model is a standard test of acute inflammation.

The nature of data set [4]: Analgesic activity (method of Randall and Selitto). Type of data set: in vivo. The note with it: for selectivity ratio: in vivo, Randall-Selitto 3 h, read-out: Therapeutical index LD50/ED50 (Randall-Selitto 3h); for ED50: po, read-out: Randall-Selitto (3 h) ED50. The source says: As regards the analgesic activity, the evaluation has been carried out according to the method of Randall and Selitto (Arch. Ing. Pharmacodyn., 111, 409, […]).

The nature of data set [5]: Ulcerogenic activity / gastric tolerability, UD50 in fasted rats. Type of data set: in vivo, rat. As to conditions: rat, in vivo, po. The source says: (§3) The UD50 has been also calculated according to the aforesaid method of Litchfield and Wilcoxon.
Data set [6] has as its system rat. Briefly: Acute toxicity in the rat (method of Litchfield and Wilcoxon). The note with it: in vivo, po.
Source text: as §1

The test system of data set [7] is rat. Briefly: Ulcerogenic activity / gastric tolerability, UD50 in fasted rats. It counts as in vivo. As to conditions: for Gastric tolerability UD50 fasted 18 h / Gastric tolerability UD50 fasted 48 h: rat, in vivo, po.
Source text: as §3

A short description of data set [8]: Solubility of the product. It counts as physicochemical.
The mark [9] stands for this setting: UD50 18 h, Randall-Selitto 3 h, read-out: Tolerability index UD50 (18h)/ED50 (Randall-Selitto 3 H).
The mark [10] stands for this setting: UD50 18 h, carrageenin 3 h, read-out: Tolerability index UD50 (18 h)/ED50 (carrageenin 3 h).
Where [11] appears, read: UD50 48 h, Randall-Selitto 3 h, read-out: Tolerability index UD50 (48 h)/ED50 (Randall-Selitto 3 h).
Setting [12] is: UD50 48 h, carrageenin 3 h, read-out: Tolerability index UD50 (48 h)/ED50 (carrageenin 3 h).

Counter-ions that a name gives are not always drawn. Like-named read-outs stand apart in the source and are kept apart here.

Take `COc1ccc2c(c1)c(CC(=O)O)c(C)n2C(=O)c1ccc(Cl)cc1` [Indomethacin, 1-(p-chlorobenzoyl)-2-methyl-5-methoxy-indol-3-acetic acid, reference compound]: in data set [1] (per os (head: mg/kg/os), * = insufficient sample), the LD50 was found to be 21 mg/kg. In addition, the selectivity ratio was determined as 4.77 in data set [2]; 15.8 in data set [4]; 5.18 in data set [5] (setting [9]); 1.57 in data set [5] (setting [10]); 2.59 in data set [5] (setting [11]); 0.78 in data set [5] (setting [12]). The ED50 in the data set with rat [3] is 4.4 mg/kg; in data set [4] (3 h) it was 1.33 mg/kg. In addition, the TD50 at 18 h in data set [5] (fasted rats, per os, 18 h, read-out: Gastric tolerability UD50 fasted 18 h) came out at 6.9 mg/kg. Moreover, in data set [5] (fasted rats, per os, 48 h, read-out: Gastric tolerability UD50 fasted 48 h), the TD50 at 48 h stood at 3.45 mg/kg.

Consider `COc1ccc2c(c1)c(CC(=O)OCc1cnc(C)c3c1COC(C)(C)O3)c(C)n2C(=O)c1ccc(Cl)cc1` [compound ex. 1(b), Hydrochloride of the (3,4-isopropylidene)-pyridoxine ester of 1-(p-chlorobenzoyl)-2-methyl-5-methoxy-indol-3-acetic acid], for which the “LD50, rat” value in the data set on rat [6] is on record as 85 mg/kg. Besides, the selectivity ratio in data set [2] came out at 8.39. In the data set on rat [3] (normal rat, per os), the “Carrageenin induced oedema (3 h) ED50” value was 10.13 mg/kg/os. The “Randall-Selitto (3 h) ED50” value in data set [4] (3 h, per os, 180 min) is reported as 2.66 mg/kg/os. In addition, in data set [4], the selectivity ratio is 31.9. The “Tolerability index UD50 (18h)/ED50 (Randall-Selitto 3 H)” value in the data set with rat [7] (UD50 18 h) is given as 12.59. Moreover, in the data set on rat [7] (UD50 18 h, carrageenin 3 h), the “Tolerability index UD50 (18 h)/ED50 (carrageenin 3 h)” value was determined as 3.30. Moreover, the “Tolerability index UD50 (48 h)/ED50 (Randall-Selitto 3 h)” value in the data set with rat [7] (UD50 48 h) was determined as 8.45. Moreover, the “Tolerability index UD50 (48 h)/ED50 (carrageenin 3 h)” value with rat [7] (UD50 48 h, carrageenin 3 h) was determined as 2.22. Moreover, in the data set on rat [7], the “Gastric tolerability UD50 fasted 18 h” value is 33.50 and the “Gastric tolerability UD50 fasted 48 h” value is on record as 22.50. Also, in data set [8] (cold chloroform), the “solubility in cold chloroform” value was “soluble”. Moreover, the “solubility in hot N,N'-dimethylformamide” value in data set [8] (hot N,N'-dimethylformamide) is given as “poorly soluble”. For the same compound, the “solubility in hot ethanol” value in data set [8] (hot ethanol) was “soluble”. Also, the solubility in water result in data set [8] (water) is “insoluble”.

As for `COc1ccc2c(c1)c(CC(=O)OCc1cnc(C)c3c1COC(C)(C)O3)c(C)n2C(=O)c1ccc(Cl)cc1` [compound ex. 1(c), (3,4-isopropylidene)-pyridoxine ester of 1-(p-chlorobenzoyl)-2-methyl-5-methoxy-indol-3-acetic acid], the “LD50, rat” value in the data set with rat [6] is above 200 mg/kg. In the data set on rat [3] (normal rat, per os), the “Carrageenin induced oedema (3 h) ED50” value was 36.83 mg/kg/os. Besides, in data set [4] (3 h, per os), the ED50 was 2.7 mg/kg. The selectivity ratio in data set [5] (setting [10]) was 5.75. In addition, the selectivity ratio in data set [5] (setting [12]) amounted to 3.8. For the same compound, in the data set with rat [7] (UD50 18 h), the “Tolerability index UD50 (18h)/ED50 (Randall-Selitto 3 H)” value came out at 78.51. The “Tolerability index UD50 (48 h)/ED50 (Randall-Selitto 3 h)” value in the data set on rat [7] (UD50 48 h) is on record as 51.85. Also, in the data set with rat [7], the “Gastric tolerability UD50 fasted 18 h” value was 212.00 and the “Gastric tolerability UD50 fasted 48 h” value amounted to 140.00.

Turning to `COc1ccc2c(c1)c(CC(=O)OCc1cnc(C)c(O)c1CO)c(C)n2C(=O)c1ccc(Cl)cc1` [compound ex. 2, Pyridoxine ester of 1-(p-chlorobenzoyl)-2-methyl-5-methoxy-indol-3-acetic acid], the mortality in data set [1] (819 mg/kg, read-out: LD50, rat line: percent at 819 mg/kg) came to 62.5%. Also, the ED50 in the data set on rat [3] (normal rat, per os) turned out to be 76 mg/kg; in data set [4] (3 h, per os), 3.37 mg/kg. Also, the TD50 at 18 h in data set [5] (Gastric tolerability UD50 fasted 18 h) was 530 mg/kg. The TD50 at 48 h in data set [5] (Gastric tolerability UD50 fasted 48 h) was 285 mg/kg. For the same compound, the selectivity ratio came out at 157 in data set [5] (setting [9]), 6.97 in data set [5] (setting [10]), 84.6 in data set [5] (setting [11]) and 3.75 in data set [5] (setting [12]).

As usually defined, the LD50 is the dose expected to kill half of the subjects tested. By ED50 is commonly meant the midpoint of the dose-response relation.
